System: house mice, Mus musculus
Assay: Laboratory T-tube bioassay: behavioral responses of mice (first choice, time spent)
Format: in vivo
Settings: female mice
Excerpt: A laboratory experimental apparatus was constructed to test the behavioral responses of mice to the compositions described herein. The experimental design is depicted in FIG. 4 and includes three clear Plexiglas chambers: release chamber (1: 40 cm×20 cm×30 cm for placement of a mouse at the onset of a bioassay), and response chambers (3a and 3b: each 60 cm×30 cm×40 cm) interconnected by a Pyrex glass T-tube (2; stem: 65 cm long, side arms: 45 cm long, all 10 cm in diameter). Each response chamber housed a test stimulus in a Petri dish (4a, 4b; 3 cm diam.). For each replicate, a single mouse was deprived of food, but not water, for 4-6 h before being placed into chamber 1, which was illuminated by dim red light to facilitate observations of the mouse's position. The mouse was allowed to enter the stem of the T-tube (2) on its own accord in response to test stimuli, which were randomly assigned to response chamber 3a or 3b.
Both response chambers were fitted with a Petri dish (4a, 4b) containing a Whatman #1 filter paper disk (25 mm diam.) treated with a randomly assigned treatment stimulus or control stimulus. For each bioassay, a single mouse was tested and the following data were recorded: (1) the treatment or control chamber the mouse entered first with all four paws (“first-choice data”); and (2) the position of the mouse at each of 30 30-sec intervals after its first entry into the T-tube. Position data were then used to calculate the proportion of time a mouse spent in the treatment or control chamber (“time-spent data”).
Following each replicate, the chambers and T-tube were cleaned with a Percept® disinfectant detergent (Virox Technologies Inc. Mississaugua ON L5N 5M4, Canada) and wiped with 70% ethanol.
First-choice data and the time spent in a trap box quadrant were analyzed using a χ^2 test with Yates' correction for continuity (α=0.05) and the Student's t-test (α=0.05), respectively.
In Experiment 5, the laboratory experimental design of FIG. 4 was used to evaluate the responses of female mice to synthetic androstenone. For Experiment 5, the treatment stimulus consisted of filter paper treated with 4 μg of synthetic androstenone (see Experiments 1 and 2), and the control stimulus consisted of filter paper treated with the 50 μl of ether without androstenone.
In Experiment 6, the laboratory experimental design of FIG. 4 was used to evaluate the responses of male mice to blends of synthetic progesterone and estrogen. For Experiment 6, the treatment stimulus consisted of filter paper treated with a 4-μg blend of the synthetic hormones progesterone and estrogen formulated in 50 μl of ether at a ratio of 100:1 and a control stimulus which consisted of filter paper treated with 50 μl of ether.
In Experiments 9 to 11, the laboratory experimental design of FIG. 4 was used to evaluate the responses of male mice to synthetic progesterone and estrogen. For the Experiments, the treatment stimulus consisted of filter paper treated with a blend of the synthetic progesterone (50 ng) and estrogen (25 ng) (hereinafter “synthetic hormone blend”) (Experiment 9), progesterone alone (75 ng) (Experiment 10) or estrogen alone (75 ng) (Experiment 11) formulated in 50 μl ether. The control stimulus consisted of filter paper treated with 50 μl of ether for each of Experiments 9 to 11.
Experiment 12 used the laboratory experimental apparatus of FIG. 4 to test choices of female mice between filter paper treated with 75 ng of synthetic testosterone (the treatment stimulus) formulated in 50 μl of ether and control filter paper treated with 50 μl of ether. Experiment 13 was identical to Experiment 12 except that the treatment stimulus consisted of filter paper treated with 75 ng of synthetic androstenone.

[1] = Experiment 5, 4 μg synthetic androstenone
[2] = Experiment 13, 75 ng synthetic androstenone
[3] = Experiment 12, 75 ng synthetic testosterone

Row | Structure (SMILES) | first entry into baited response chamber vs control chamber [1] | time spent in response chamber with stimulus vs control chamber [1] | effect on female mice (Experiment 5, 4 μg synthetic androstenone vs 50 μl ether) | first entry into baited chamber vs control chamber [2] | responses by female mice compared with testosterone [2] | time spent in baited chamber vs control chamber [2] | first entry into baited chamber vs control chamber [3] | preference in time spent for the treated chamber over control [3] | time spent in baited chamber vs control chamber [3] | effect on female mice (Experiment 12, 75 ng synthetic testosterone in 50 μl ether vs ether)
1 | C[C@]12CCC(=O)C[C@@H]1CC[C@@H]1[C@@H]2CC[C@]2(C)C=CC[C@@H]12 [androstenone, 5α-androst-16-en-3-one] | as often as | significantly more time | positive effect | as often as | much weaker | slightly more time |  |  |  | 
2 | C[C@]12CC[C@H]3[C@@H](CCC4=CC(=O)CC[C@@]43C)[C@@H]1CC[C@@H]2O [testosterone, (8R,9S,10R,13S,14S,17S)-17-hydroxy-10,13-dimethyl-1,2,6,7,8,9,11,12,14,15,16,17-dodecahydrocyclopenta[a]phenanthren-3-one, reference compound] |  |  |  |  |  |  | significantly more often | over threefold preference | significantly more time | very positive effect

From patent publication US11185077B2, “Attractants for rodents” (priority 2016, dated 2021)
